For data set [1], the target named is T1, human serine racemase (hSR) (Homo sapiens, UniProt Q9GZT4).
T1 sequence (Q9GZT4 1-340): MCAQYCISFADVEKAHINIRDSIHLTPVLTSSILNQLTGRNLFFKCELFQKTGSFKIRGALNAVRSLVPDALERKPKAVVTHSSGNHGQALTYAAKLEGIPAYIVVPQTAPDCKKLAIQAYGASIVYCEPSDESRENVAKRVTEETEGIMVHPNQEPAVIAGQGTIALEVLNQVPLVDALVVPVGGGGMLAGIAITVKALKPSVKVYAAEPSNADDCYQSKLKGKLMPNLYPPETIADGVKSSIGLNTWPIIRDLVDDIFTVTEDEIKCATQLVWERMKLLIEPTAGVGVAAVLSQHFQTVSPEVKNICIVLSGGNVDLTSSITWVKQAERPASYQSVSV
The conditions noted are these: cited from earlier work.

Data set [2] addresses T1, human serine racemase (hSR). Put plainly: 13C/2H-isotopic crosstalk NMR dual function assay. Particulars: for IC50: 13C/2H crosstalk NMR assay.
In data set [3] the target is T2, human serine racemase (hSR), allosteric ATP site (Homo sapiens, UniProt Q9GZT4).
T2 sequence (Q9GZT4 1-340): T1 sequence (Q9GZT4 1-340)
Put plainly: steady state competition against ATP, L-Ser held constant at 30 mM. The data set is classed as biochemical. The conditions noted are these: L-Ser constant at 30 mM.

Data set [4] in a line: solubility under assay conditions. The data set is classed as physicochemical.
For data set [5], the target named is T1, human serine racemase (hSR). Put plainly: steady state kinetic analysis, coupled UV-vis assay for β-elimination. Format: biochemical.
[6] abbreviates: read-out: IC50(H/D-exchange), L-Ser 30 mM.
Where [7] appears, read: read-out: IC50(β-elimination), positive controls.

Read-outs that look alike come from different tables or passages of the source.

As a reminder, the Ki is a dissociation constant, usually derived from enzyme kinetics or from competition with a known ligand.

Regarding `N[C@H](C(=O)O)[C@@H](O)C(=O)O` [L-EHA, L-erythro-β-hydroxy-aspartate], in data set [1] (literature, most potent inhibitors yet identified), the Ki is roughly 30 µM.
`NC(=O)C1=CN([C@@H]2O[C@H](COP(=O)(O)O)[C@@H](O)[C@H]2O)C=CC1` [NMNH, nicotinamide mononucleotide, reduced form]: the “mode of inhibition with respect to substrate” value in data set [1] (ref Mozzarelli and co-workers) is recorded as “non-competitive inhibition”.
Turning to `O=C(O)CP(=O)(O)O` [compound 1, phosphonoacetate, reference compound], the IC50 was 89 ± 35 µM in data set [2] (setting [6]) and 39000 ± 2000 µM in data set [2] (setting [7]).
For `CCOP(=O)(CC(=O)O)OCC` [compound 2, diethyl phosphonate acetate, reference compound], the IC50 amounted to 95000 ± 10000 µM in data set [2] (read-out: IC50(H/D-exchange), positive controls) and 96000 ± 19000 µM in data set [2] (setting [7]).
For `O=C(O)C(Cl)(Cl)C(=O)O` [dichloromalonate], in data set [1], the Ki is roughly 20 µM.
In the case of `O=C(O)CC(=O)O` [malonate], in data set [1] (ref 33a), the Ki was 20 to 120 µM.
Turning to “N-H indolo-chroman-2,4-dione [compound 10]”, the “mode of inhibition vs. ATP” value in data set [3] is “competing with ATP for the allosteric site”. For the same compound, in data set [4], the relative solubility result is reported as “more soluble than the N-alkyl congeners”. Further, the “inhibition in the NMR screen” value in data set [2] (1 mM) is listed as “complete inhibition”. Further, in data set [2] (NMR assay), the “Hill coefficient of dose-response curve” value is listed as ~ 2. In addition, the IC50 is 45 ± 6 µM in data set [2] (setting [6]) and 36 ± 10 µM in data set [2] (read-out: IC50(β-elimination), L-Ser 30 mM). Moreover, the Ki in data set [5] (read-out: Ki (L-SOS elim), β-elimination of L-serine-O-sulfate) is 12 ± 4 µM; in data set [5] (read-out: Ki (L-Ser elim), β-elimination of L-Ser) it was 44 ± 6 µM. For the same compound, in data set [5] (steady state kinetics), the “mode of inhibition vs. substrate” value is recorded as “non-competitive inhibition”.
